# pIC50: −log10 of the molar value.
# What was measured:
# [1] = Clearance in mouse at 1 mg/kg, iv; assay type: ADME, organism-based; conditions: in vivo
# [2] = Volume of distribution at steady state in mouse at 1 mg/kg, iv; assay type: ADME, organism-based; conditions: in vivo, read-out: Vdss
# [3] = Cmax in mouse at 10 mg/kg, po; assay type: ADME, organism-based; design: dose 10 mg/kg, route po; conditions: in vivo
# [4] = AUC (0 to last) in mouse at 10 mg/kg, po; assay type: ADME, organism-based; design: time 0 - last, dose 10 mg/kg, route po; conditions: in vivo
# [5] = Oral bioavailability in mouse at 10 mg/kg; assay type: ADME, organism-based; conditions: in vivo
# [6] = Half-life in mouse at 1 mg/kg, iv; assay type: ADME, organism-based; conditions: in vivo
# [7] = system: KARPAS-299; assay: cells; conditions: Homo sapiens
# Description: Antiproliferative activity against human KARPAS-299 cells harbouring wild type ALK assessed as reduction in cell viability by Celltitre-Glo luminescent assay
# [8] = system: BaF3; assay: cells; conditions: Mus musculus
# Description: Antiproliferative activity against mouse BaF3 cells harbouring ALK wild type assessed as reduction in cell viability by Celltitre-Glo luminescent assay
# [9] = system: BaF3; assay: cells; conditions: Mus musculus; remark: listed apart in the source
# Description: Antiproliferative activity against mouse BaF3 cells harbouring ALK C1156Y mutant assessed as reduction in cell viability by Celltitre-Glo luminescent assay
# [10] = system: BaF3; assay: cells; conditions: Mus musculus; remark: listed apart in the source
# Description: Antiproliferative activity against mouse BaF3 cells harbouring ALK L1196M mutant assessed as reduction in cell viability by Celltitre-Glo luminescent assay
# [11] = Clearance in Balb/c nude mouse at 1 mg/kg, iv; assay type: ADME, organism-based; conditions: in vivo
# [12] = system: BaF3; assay: Antiproliferative activity against mouse BaF3 cells harbouring CD74-ROS1-D2033N mutant assessed as reduction in cell viability incubated for 72 hrs by Celltitre-Glo luminescent assay; assay type: functional, cell-based; conditions: BaF3, 72 h
# [13] = system: BaF3; assay: Antiproliferative activity against crizotinib resistant mouse BaF3 cells expressing EML4 fused ALK L1152R mutant assessed as reduction in cell viability incubated for 72 hrs by Celltitre-Glo luminescent assay; assay type: functional, cell-based; conditions: BaF3, 72 h
# [14] = cells; conditions: Mus musculus, BaF3, 72 h
# [15] = cells; conditions: Mus musculus, BaF3, 72 h; remark: listed apart in the source
# [16] = cells; conditions: Mus musculus, Ba/F3 EML4-ALK-G1202R, 72 h
# [17] = system: BaF3; assay: Antiproliferative activity against crizotinib resistant mouse BaF3 cells expressing EML4 fused ALK I1171T mutant assessed as reduction in cell viability incubated for 72 hrs by Celltitre-Glo luminescent assay; assay type: functional, cell-based; conditions: BaF3, 72 h
# [18] = cells; conditions: Mus musculus, BaF3, 72 h; remark: listed apart in the source
# [19] = system: BaF3; assay: Antiproliferative activity against crizotinib resistant mouse BaF3 cells expressing EML4 fused ALK L1152P mutant assessed as reduction in cell viability incubated for 72 hrs by Celltitre-Glo luminescent assay; assay type: functional, cell-based; conditions: BaF3, 72 h
# [20] = system: BaF3; assay: Antiproliferative activity against crizotinib resistant mouse BaF3 cells expressing EML4 fused ALK V1180L mutant assessed as reduction in cell viability incubated for 72 hrs by Celltitre-Glo luminescent assay; assay type: functional, cell-based; conditions: BaF3, 72 h
# [21] = system: BaF3; assay: Antiproliferative activity against crizotinib resistant mouse BaF3 cells expressing EML4 fused ALK F1174V mutant assessed as reduction in cell viability incubated for 72 hrs by Celltitre-Glo luminescent assay; assay type: functional, cell-based; conditions: BaF3, 72 h
# [22] = system: BaF3; assay: Antiproliferative activity against crizotinib resistant mouse BaF3 cells expressing EML4 fused ALK I1171S mutant assessed as reduction in cell viability incubated for 72 hrs by Celltitre-Glo luminescent assay; assay type: functional, cell-based; conditions: BaF3, 72 h
# [23] = system: BaF3; assay: Antiproliferative activity against mouse BaF3 cells harbouring CD74-ROS1-S1986Y mutant assessed as reduction in cell viability incubated for 72 hrs by Celltitre-Glo luminescent assay; assay type: functional, cell-based; conditions: BaF3, 72 h
# [24] = system: BaF3; assay: Antiproliferative activity against mouse BaF3 cells harbouring SLC34A2-ROS1-L2026M mutant assessed as reduction in cell viability incubated for 72 hrs by Celltitre-Glo luminescent assay; assay type: functional, cell-based; conditions: BaF3, 72 h
# [25] = system: BaF3; assay: Antiproliferative activity against mouse BaF3 cells harbouring CD74-ROS1-S1986F mutant assessed as reduction in cell viability incubated for 72 hrs by Celltitre-Glo luminescent assay; assay type: functional, cell-based; conditions: BaF3, 72 h
# [26] = cells; conditions: Mus musculus, Ba/F3 EML4-ALK, 72 h
# [27] = system: BaF3; assay: Antiproliferative activity against crizotinib resistant mouse BaF3 cells expressing EML4 fused ALK T1151Tins mutant assessed as reduction in cell viability incubated for 72 hrs by Celltitre-Glo luminescent assay; assay type: functional, cell-based; conditions: BaF3, 72 h
# [28] = system: BaF3; assay: Antiproliferative activity against crizotinib resistant mouse BaF3 cells expressing EML4 fused ALK I1171N mutant assessed as reduction in cell viability incubated for 72 hrs by Celltitre-Glo luminescent assay; assay type: functional, cell-based; conditions: BaF3, 72 h
# [29] = system: BaF3; assay: Antiproliferative activity against crizotinib resistant mouse BaF3 cells expressing EML4 fused ALK F1174C mutant assessed as reduction in cell viability incubated for 72 hrs by Celltitre-Glo luminescent assay; assay type: functional, cell-based; conditions: BaF3, 72 h
compound,measurement,setting,value
COc1cc(N2CCC3(CNC3)C2)ccc1Nc1ncc(Cl)c(Nc2ccccc2P(C)(C)=O)n1,clearance,[1],69 mL/min/kg
same,Vd,[2],3.1 L/kg
same,Cmax,[3],28.7 ng/mL
same,AUC(0-t),[4],27.7 ng·h/mL
same,bioavailability,[5],1.2%
same,half-life,[6],1.1 h
same,pIC50,[7],6.90
CN1CCC2(CC1)CCN(c1ccc(Nc3ncc(Cl)c(Nc4ccccc4P(C)(C)=O)n3)c(OC(F)F)c1)CC2,pIC50,[8],7.62
same,pIC50,[9],7.44
same,pIC50,[10],7.41
same,pIC50,[7],7.82
COc1cc(C2CCC3(CC2)CCN(C)CC3)ccc1Nc1ncc(Cl)c(Nc2ccccc2P(C)(C)=O)n1,pIC50,[8],7.96
same,pIC50,[9],7.52
same,pIC50,[10],7.57
same,pIC50,[7],7.44
COc1cc(N2CCC3(CCN(C)CC3)CC2)ccc1Nc1ncc(Cl)c(Nc2ccccc2P(C)(C)=S)n1,pIC50,[8],8.30
same,pIC50,[9],7.92
same,clearance,[11],61 mL/min/kg
same,pIC50,[10],8.10
same,pIC50,[7],7.52
COc1cc(N2CCC(N3CCN(C)CC3)CC2)ccc1Nc1ncc(Cl)c(Nc2ccccc2P(C)(C)=O)n1 [BRIGATINIB],pIC50,[12],7.44
same,pIC50,[13],8.00
same,pIC50,[14],7.51
same,pIC50,[15],7.51
same,pIC50,[16],6.47
same,pIC50,[17],7.72
same,pIC50,[18],7.66
same,pIC50,[19],9.00
same,pIC50,[20],8.00
same,pIC50,[21],7.33
same,pIC50,[22],7.03
same,pIC50,[23],7.92
same,pIC50,[24],7.32
same,pIC50,[25],7.70
same,pIC50,[26],7.60
same,pIC50,[27],7.46
same,pIC50,[28],7.46
same,pIC50,[29],7.01
COc1cc(N2CCC3(CCNCC3)CC2)ccc1Nc1ncc(Cl)c(Nc2ccccc2P(C)(C)=O)n1,clearance,[1],20.1 mL/min/kg
same,Vd,[2],1.3 L/kg
same,Cmax,[3],977 ng/mL
same,AUC(0-t),[4],1630 ng·h/mL
same,bioavailability,[5],18.5%
same,half-life,[6],3.6 h
same,pIC50,[7],7.11
COc1cc(N2CCC3(CCN(C)CC3)CC2)c(C)cc1Nc1ncc(Cl)c(Nc2ccccc2P(C)(C)=O)n1,pIC50,[7],7.21

# — ChEMBL document CHEMBL5143665, “Discovery and preclinical evaluations of WX-0593, a novel ALK inhibitor targeting crizotinib-resistant mutations” (Bioorg Med Chem Lett, 2022)
